Experimental data reported in US8940739B2, “Compound of a reverse-turn mimetic and a production method and use therefor” (JW Pharmaceutical Corporation, priority 2010, dated 2015).
pIC50: −log10 of the molar value.

What follows are compounds tested against cDNA-expressed human hepatic CYP3A4 (Homo sapiens (Human), UniProt P08684) (assay: Measurement of CYP (IC50 of P450 CYP3A4), BFC substrate). Settings: 20 minutes.
Chain of cDNA-expressed human hepatic CYP3A4 (P08684 whole entry): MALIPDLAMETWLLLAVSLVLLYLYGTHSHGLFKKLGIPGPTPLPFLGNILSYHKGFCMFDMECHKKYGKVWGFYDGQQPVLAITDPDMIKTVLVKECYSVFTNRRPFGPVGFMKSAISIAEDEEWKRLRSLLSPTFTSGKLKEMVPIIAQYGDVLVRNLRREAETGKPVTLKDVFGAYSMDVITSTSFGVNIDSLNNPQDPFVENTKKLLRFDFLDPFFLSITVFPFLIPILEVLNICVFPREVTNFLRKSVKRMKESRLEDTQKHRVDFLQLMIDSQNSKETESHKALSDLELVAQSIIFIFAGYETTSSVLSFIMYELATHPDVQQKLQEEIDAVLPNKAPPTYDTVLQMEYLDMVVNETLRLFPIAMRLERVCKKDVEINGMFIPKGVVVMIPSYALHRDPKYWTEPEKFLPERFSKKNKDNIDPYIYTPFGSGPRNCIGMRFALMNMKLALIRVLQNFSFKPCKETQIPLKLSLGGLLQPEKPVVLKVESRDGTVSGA
Format: in vitro ADME
Procedure: The compounds of the present invention had lower P450 CYP3A4 inhibitory activity (higher IC50). Lower CYP3A4 inhibitory activity means that the compounds of the present invention cause fewer side-effects from the pharmacological point of view.
This assay was performed in a 200 l volume in 96-well microtiter plates using cDNA-expressed human hepatic CYP3A4 (supersome, BD Gentest™ #456202). As a substrate for CYP3A4, 7-benzyloxy-4-trifluoromethyl-coumarin (BFC) was used. The compounds of Examples 1 to 5 and the substrate BFC were dissolved in 100% acetonitrile. The final volume of acetonitrile of the incubation mixture was less than 1% (volume/volume). A potassium phosphate buffer (pH 7.4, final concentration 0.1M), MgCl2 (final concentration 8.3 mM), EDTA (final concentration 1.67 mM), an inventive compound stock solution, CYP3A4 supersome, and NADPH (final concentration 0.25 mM) were added to each well. The reaction was initiated by adding the substrate (BFC, final concentration 30 µM) at 37. The incubation was performed for 20 minutes and then the reaction was terminated by the addition of 75 μl of acetonitrile: 0.5 M tris-base=4:1 (volume/volume).
Then, a fluorescent signal was measured using a fluorometer. A BFC metabolite, 7-hydroxy-4-trifluoromethyl-coumarin, was measured using an excitation wavelength of 409 nm and an emission wavelength of 530 nm.
In the case of C=CCN1CC(=O)N2[C@@H](Cc3ccc(O)cc3)C(=O)N(Cc3cccc4c(-c5ccc(NC(=O)c6ccc(N(CC)CC)cc6)cc5)cn(C)c34)C[C@@H]2N1C(=O)NCc1ccccc1 [Compound D-57], the pIC50 was < 4.60.
A pIC50 of 5.59 was found for C=CCN1CC(=O)N2C(CN(Cc3cccc4c(C(=O)Nc5ccc(NCC(O)CO)nc5)cn(C)c34)C(=O)[C@@H]2Cc2ccc(O)cc2)N1C(=O)NCc1ccccc1 (some centres unmarked) [Compound G-21] in this work.
A pIC50 of 5.22 was found for C=CCN1CC(=O)N2[C@@H](Cc3ccc(O)cc3)C(=O)N(Cc3cccc4c(C(=O)N5CC(N6CCOCC6)C5)cn(C)c34)C[C@@H]2N1C(=O)NCc1ccccc1 [Compound E-72] in this work.
A pIC50 of 5.10 was found for C=CCN1CC(=O)N2[C@@H](Cc3ccc(O)cc3)C(=O)N(Cc3cccc4c(C(=O)NCCN(C)C)cn(C)c34)C[C@@H]2N1C(=O)NCc1ccccc1 [Compound F-13] in this work.
A pIC50 of 5.50 was found for C=CCN1CC(=O)N2[C@@H](Cc3ccc(O)cc3)C(=O)N(Cc3cccc4c(C(=O)N(C)C)cn(C)c34)C[C@@H]2N1C(=O)NCc1ccccc1 [Compound F-1] in this work.
A pIC50 of 4.95 was found for C=CCN1CC(=O)N2[C@@H](Cc3ccc(O)cc3)C(=O)N(Cc3cccc4c(C(=O)N5CCN(S(C)(=O)=O)CC5)cn(C)c34)C[C@@H]2N1C(=O)NCc1ccccc1 [Compound E-15] in this work.
A pIC50 of 5.44 was found for C=CCN1CC(=O)N2[C@@H](Cc3ccc(O)cc3)C(=O)N(Cc3cccc4c(C(=O)N5CCCN(C)CC5)cn(C)c34)C[C@@H]2N1C(=O)NCc1ccccc1 [Compound E-42] in this work.
A pIC50 of 4.96 was found for C=CCN1CC(=O)N2[C@@H](Cc3ccc(O)cc3)C(=O)N(Cc3cccc4c(C(=O)N[C@H](C)C(=O)OC)cn(C)c34)C[C@@H]2N1C(=O)NCc1ccccc1 [Compound F-21] in this work.
A pIC50 of 5.30 was found for C=CCN1CC(=O)N2[C@@H](Cc3ccc(O)cc3)C(=O)N(Cc3cccc4c(C(=O)N5CCN6CCN(CC)CC6C5)cn(C)c34)C[C@@H]2N1C(=O)NCc1ccccc1 (some centres unmarked) [Compound E-50] in this work.
A pIC50 of 4.95 was found for C=CCN1CC(=O)N2[C@@H](Cc3ccc(O)cc3)C(=O)N(Cc3cccc4c(C(=O)N5CCN(CCCO)CC5)cn(C)c34)C[C@@H]2N1C(=O)NCc1ccccc1 [Compound E-11] in this work.
A pIC50 of 5.34 was found for C=CCN1CC(=O)N2C(CN(Cc3cccc4c(C(=O)Nc5ccc(NCCN(CC)CC)nc5)cn(C)c34)C(=O)[C@@H]2Cc2ccc(O)cc2)N1C(=O)NCc1ccccc1 (some centres unmarked) [Compound G-24] in this work.
In the case of C=CCN1CC(=O)N2[C@@H](Cc3ccc(O)cc3)C(=O)N(Cc3cccc4c(-c5ccc(C(=O)Nc6ccc(OCCCC)cc6)cc5)cn(C)c34)C[C@@H]2N1C(=O)NCc1ccccc1 [Compound D-23], the pIC50 was < 4.60.
A pIC50 of 5.35 was found for C=CCN1CC(=O)N2[C@@H](Cc3ccc(O)cc3)C(=O)N(Cc3cccc4c(C(=O)N5CCC6CN(C)CC65)cn(C)c34)C[C@@H]2N1C(=O)NCc1ccccc1 (some centres unmarked) [Compound E-69] in this work.

What follows are compounds tested on MV-4-11 (human, Acute Myeloid Leukemia cell line) cells (assay: Cell growth inhibition assay, GI50 of MV-4-11). Settings: Homo sapiens, MV4-11, 72 h, MV-4-11 cells.
Format: cell-based
Procedure: The anti-proliferative activity (cell growth inhibition assay) of the compounds according to the present invention against AML (Acute Myeloid Leukemia) cancer cells was measured. […] The lower the GI50 value, the higher the anti-proliferative activity.
A cell growth Inhibition assay was performed to investigate the rate of inhibition of cell proliferation by the compounds of the present invention. MV-4-11 (human, Acute Myeloid Leukemia cell line) cells were cultured in Iscove's modified Dulbecco's medium (IMDM) including 10% fetal bovine serum (FBS), 1× penicillin/streptomycin (10,000 units/ml Penicillin, […] Streptomycin in 0.85% NaCl). MV-4-11 cells were harvested with the IMDM and 5×10^4 cells/well were transferred to each well of 96-well culture plates (Nunc, #167008).
The compounds of Examples 1 to 5 were exposed to serial dilution and duplicated for each concentration. For the serial dilution, the compounds of the present invention were repeatedly diluted with the same volume of media onto 96-well assay block (costar, #3956). After the dilution, each compound was added to each well.
Also, the background absorbance was measured during the treatment with the test compounds by replacing the test compound with IMDM in the negative control plate. The plates were incubated for three days (72 hours) at 37 in the humidified incubator containing 5% CO2. On the last day, 20 µl of a CellTiter 96 Aqueous One Solution (Promega #G3581) was added to the culture in each well and the plates were incubated for a few hours at 37 in the humidified incubator containing 5% CO2. After the incubation, the absorbance of each cell was measured at 490 nm using an EnVision (Perkinelmer, USA).
The GI50 values were calculated using a Prism 3.0 program.
A GI50 of 1.37 nM was found for C=CCN1CC(=O)N2[C@@H](Cc3ccc(O)cc3)C(=O)N(Cc3cccc4c(C(=O)Nc5ccc(N(C)Cc6cncn6C)nc5)cn(C)c34)C[C@@H]2N1C(=O)NCc1ccccc1 [Compound G-34] in this work.
A GI50 of 5 nM was found for C=CCN1CC(=O)N2C(Cc3ccc(O)cc3)C(=O)N(Cc3cccc4c(C(=O)Nc5ccc(NCCN6CCN(C)CC6)nc5)cn(C)c34)CC2N1C(=O)NCc1ccccc1 (centres unmarked) [Compound G-30] in this work.
A GI50 of 15.4 nM was found for C=CCN1CC(=O)N2[C@@H](Cc3ccc(O)cc3)C(=O)N(Cc3cccc4c(C(=O)N5CCN(c6ccc(O)cc6)CC5)cn(C)c34)C[C@@H]2N1C(=O)NCc1ccccc1 [Compound E-40] in this work.
A GI50 of 1.2 nM was found for C=CCN1CC(=O)N2[C@@H](Cc3ccc(O)cc3)C(=O)N(Cc3cccc4c(-c5ccc(NC(=O)c6ccc(CN)cc6)cc5)cn(C)c34)C[C@@H]2N1C(=O)NCc1ccccc1 [Compound D-53] in this work.
A GI50 of 1.2 nM was found for C=CCN1CC(=O)N2[C@@H](Cc3ccc(O)cc3)C(=O)N(Cc3cccc4c(C(=O)Nc5ccc(N6CCC(N(C)C)CC6)nc5)cn(C)c34)C[C@@H]2N1C(=O)NCc1ccccc1 [Compound G-45] in this work.
A GI50 of 8 nM was found for C=CCN1CC(=O)N2C(CN(Cc3cccc4c(C(=O)Nc5ccc(O)cc5)cn(C)c34)C(=O)[C@@H]2Cc2ccc(O)cc2)N1C(=O)NCc1ccccc1 (some centres unmarked) [Compound G-2] in this work.
A GI50 of 5.7 nM was found for C=CCN1CC(=O)N2[C@@H](Cc3ccc(O)cc3)C(=O)N(Cc3cccc4c(-c5ccc(C(C)=O)s5)cn(C)c34)C[C@@H]2N1C(=O)NCc1ccccc1 [Compound H-8] in this work.
A GI50 of 15 nM was found for C=CCN1CC(=O)N2[C@@H](Cc3ccc(O)cc3)C(=O)N(Cc3cccc4c(-c5ccc(C(=O)NNC(C)C)cc5)cn(C)c34)C[C@@H]2N1C(=O)NCc1ccccc1 [Compound D-35] in this work.
A GI50 of 1.8 nM was found for C=CCN1CC(=O)N2[C@@H](Cc3ccc(O)cc3)C(=O)N(Cc3cccc4c(-c5ccc(C(=O)N(N)C(C)C)cc5)cn(C)c34)C[C@@H]2N1C(=O)NCc1ccccc1 [Compound D-42] in this work.
A GI50 of 1.7 nM was found for C=CCN1CC(=O)N2C(CN(Cc3cccc4c(C(=O)Nc5ccc(N(C)CCCO)nc5)cn(C)c34)C(=O)[C@@H]2Cc2ccc(O)cc2)N1C(=O)NCc1ccccc1 (some centres unmarked) [Compound G-20] in this work.
A GI50 of 6.1 nM was found for C=CCN1CC(=O)N2[C@@H](Cc3ccc(O)cc3)C(=O)N(Cc3cccc4c(C(=O)N(C)CCCc5c(C)nn(C)c5C)cn(C)c34)C[C@@H]2N1C(=O)NCc1ccccc1 [Compound F-38] in this work.
A GI50 of 4.5 nM was found for C=CCN1CC(=O)N2[C@@H](Cc3ccc(O)cc3)C(=O)N(Cc3cccc4c(C(=O)NCc5cccc(C)n5)cn(C)c34)C[C@@H]2N1C(=O)NCc1ccccc1 [Compound F-44] in this work.
A GI50 of 1.9 nM was found for C=CCN1CC(=O)N2[C@@H](Cc3ccc(O)cc3)C(=O)N(Cc3cccc4c(-c5ccc(NC(=O)CCCNCC(N)=O)cc5)cn(C)c34)C[C@@H]2N1C(=O)NCc1ccccc1 [Compound D-71] in this work.
A GI50 of 5.5 nM was found for C=CCN1CC(=O)N2[C@@H](Cc3ccc(O)cc3)C(=O)N(Cc3cccc4c(-c5cccc(C(=O)NCc6ccccc6)c5)cn(C)c34)C[C@@H]2N1C(=O)NCc1ccccc1 [Compound D-28] in this work.
A GI50 of 1.3 nM was found for C=CCN1CC(=O)N2[C@@H](Cc3ccc(O)cc3)C(=O)N(Cc3cccc4c(-c5ccc(C(=O)NNCC(F)(F)F)cc5)cn(C)c34)C[C@@H]2N1C(=O)NCc1ccccc1 [Compound D-37] in this work.
A GI50 of 1.3 nM was found for C=CCN1CC(=O)N2[C@@H](Cc3ccc(O)cc3)C(=O)N(Cc3cccc4c(-c5ccc(NC(=O)C6CCN(C(C)=O)CC6)cc5)cn(C)c34)C[C@@H]2N1C(=O)NCc1ccccc1 [Compound D-61] in this work.
A GI50 of 1.3 nM was found for C=CCN1CC(=O)N2C(CN(Cc3cccc4c(C(=O)Nc5ccc(N6CCN(C)CC6)cc5)cn(C)c34)C(=O)[C@@H]2Cc2ccc(O)cc2)N1C(=O)NCc1ccccc1 (some centres unmarked) [Compound G-40] in this work.
A GI50 of 4.9 nM was found for C=CCN1CC(=O)N2[C@@H](Cc3ccc(O)cc3)C(=O)N(Cc3cccc4c(-c5ccc(NC(=O)Nc6ccc(OC)cc6)nc5)cn(C)c34)C[C@@H]2N1C(=O)NCc1ccccc1 [Compound D-86] in this work.
A GI50 of 1.3 nM was found for C=CCN1CC(=O)N2[C@@H](Cc3ccc(O)cc3)C(=O)N(Cc3cccc4c(-c5ccc(NC(=O)C6CCN(C(C)=O)CC6)nc5)cn(C)c34)C[C@@H]2N1C(=O)NCc1ccccc1 [Compound D-89] in this work.
A GI50 of 2 nM was found for C=CCN1CC(=O)N2C(Cc3ccc(O)cc3)C(=O)N(Cc3cccc4c(C(=O)Nc5ccc(N(C)CC(C)C)nc5)cn(C)c34)CC2N1C(=O)NCc1ccccc1 (centres unmarked) [Compound G-17] in this work.
A GI50 of 4.6 nM was found for C=CCN1CC(=O)N2[C@@H](Cc3ccc(O)cc3)C(=O)N(Cc3cccc4c(C(=O)NCCc5cccnc5)cn(C)c34)C[C@@H]2N1C(=O)NCc1ccccc1 [Compound F-52] in this work.
A GI50 of 1.4 nM was found for C=CCN1CC(=O)N2[C@@H](Cc3ccc(O)cc3)C(=O)N(Cc3cccc4c(-c5ccc(C(=O)NNC)cc5)cn(C)c34)C[C@@H]2N1C(=O)NCc1ccccc1 [Compound D-33] in this work.
A GI50 of 2 nM was found for C=CCN1CC(=O)N2[C@@H](Cc3ccc(O)cc3)C(=O)N(Cc3cccc4c(-c5ccc(C(=O)Nc6ccc(CN)cc6)cc5)cn(C)c34)C[C@@H]2N1C(=O)NCc1ccccc1 [Compound D-19] in this work.
A GI50 of 1.2 nM was found for C=CCN1CC(=O)N2[C@@H](Cc3ccc(O)cc3)C(=O)N(Cc3cccc4c(-c5ccc(C(=O)NC)cc5)cn(C)c34)C[C@@H]2N1C(=O)NCc1ccccc1 [Compound D-8] in this work.
A GI50 of 1.6 nM was found for C=CCN1CC(=O)N2[C@@H](Cc3ccc(O)cc3)C(=O)N(Cc3cccc4c(C(=O)NCc5cccc(N6CCOCC6)n5)cn(C)c34)C[C@@H]2N1C(=O)NCc1ccccc1 [Compound F-50] in this work.
